According to article PMC6610665, “On the potential of in vitro organ-chip models to define temporal pharmacokinetic-pharmacodynamic relationships” (Scientific Reports, 2019):
Like-named read-outs stand apart in the source and are kept apart here.

Assays:
[1] = Heart only and heart:liver chip PKPD model (Phoenix NLME 7.0)
Procedure: Heart, liver, media, and PDMS compartments and their corresponding parameters can be seen outlined in Fig. 4a.
A fifth compartment, FPD, was added to the Phoenix model to represent a PD profile linked to the defined PK model.
Using the experimental data collected (Fig. 3), parameters (except for Kint) were simultaneously fit across heart only and heart-liver systems. […] In the heart only case, the liver compartment was eliminated resulting in relevant parameters being equal to 0. Volumes of each compartment was defined by system parameters described above. The liver volume was initialized based on the system estimates but allowed to vary to account for any differences between assumed and actual cell numbers or sizes. […] Published Guinea pig[23], dog[24] and human, PK profiles were used as inputs into the established model in order to predict cardiac bioaccumulation over time, and therefore predict change in predicted FPD. While Guinea pig and dog temporal PKPD data is available in the literature, matching human data is not. […] The reported standard deviation values in PK profile were used to capture the associated error in predicted FPD values.

[2] = parameters: method as in PMID 18587422, PMID 16581270; settings: Guinea pig; assumed for FPD simulation; cited from earlier work
[3] = parameters: method as in PMID 18587422, PMID 16581270; settings: dog; assumed for FPD simulation; cited from earlier work
[4] = heart only model, 5 µM terfenadine
Procedure: (§1) All drugs were separated using gradient elution methodology on a C18 phase (Agilent Zorbax Eclipse Plus, 4.6 mm, 100 mm length, 3 µm particle diameter) with binary mobile phase. Samples (50 µL) were diluted with acetonitrile and centrifuged to precipitate proteins after addition of the internal standard. The MS was set to positive ion mode and multiple reactive monitoring with nitrogen used for collision induced dissociation.

hiPS-CMs = test: Heart only MPS model, field potential duration (FPD) by MEA; assay type: cell-based, human; settings: 5 µM terfenadine
Procedure: The medium recirculates between 2 reservoirs through a microfluidic network formed by the PDMS gaskets, with flow driven by a rocking platform producing a sinusoidal rocking profile with amplitude of ±1° and period of 60 seconds. The medium flows over the cell-containing areas of the liver coverslips and cardiac cantilever and MEA chips within the microfluidic channel. The system contained a total of 2 mL of medium throughout the flow channel and reservoirs. Compound dosing was applied at the reservoir closest to the liver chamber, such that the compound would first pass over and interact with the liver before being recirculated throughout the system.
hiPS-CMs (purchased from Cellular Dynamics) were thawed and seeded directly onto the surfaces at 50,000 cells per MEA and 500,000 cells per cantilever[6]. Primary human hepatocytes were purchased from the Cell Resources Core (Massachusetts General Hospital, Boston, MA, USA). Once thawed, 150,000 hepatocytes were cultured in the hepatic chamber which was coated with rat tail collagen type I (60 ug/mL) as previously described[6]. […]
FPD, spontaneous beat frequency and CV were extracted using Clampfit (Axon Instruments). The FPD was calculated by measuring the time from the initiation of the Q-wave until the apex of t-wave. […]

[5] = heart:liver model, 5 µM terfenadine, mean ± SD
Procedure: as §1

[6] = parameters: method as in PMID 18587422, PMID 16581270; settings: human; assumed for FPD simulation; cited from earlier work
[7] = fit across heart only and heart:liver systems

Row | tvKint (delay of fexofenadine release into the system), estimate ([1]; fit to fexofenadine concentration data, units printed n/a) | KC1 (flow medium to heart), estimate [1, 7] [min⁻¹] | KP2 (first order flow PDMS to medium), estimate [1, 7] [min⁻¹] | Kfc (metabolism of terfenadine to fexofenadine in heart compartment), estimate [1, 7] [min⁻¹] | KL2 (flow liver to medium), estimate ([1]; heart:liver system) [min⁻¹] | Kfl (metabolism of terfenadine to fexofenadine in liver compartment), estimate ([1]; heart:liver system) [min⁻¹] | terfenadine concentration in media ([4]; 12-hour timepoint) [µM] | terfenadine concentration in media (peak) ([4]; 0.5 hours, mean ± SD) [µM] | terfenadine concentration in cardiomyocyte lysates (peak) ([4]; 4 hours, mean ± SD) [µM] | increase in FPD (hiPS-CMs; 12-hour timepoint) [fold] | increase in FPD (peak measurable change) (hiPS-CMs; 4 hours) [fold] | terfenadine concentration in media (peak) ([5]; 0.5 hours) [µM] | terfenadine concentration in heart chamber lysate (peak) ([5]; peak between 0.5 and 1 hours) [µM] | terfenadine concentration in liver chamber lysate (peak) ([5]; peak between 0.5 and 1 hours) [µM] | SMILES | percent free protein in plasma [2] [%] | percent free protein in plasma [3] [%] | percent free protein in plasma [6] [%]
1 | 0.00062 |  |  |  |  |  |  |  |  |  |  |  |  |  | CC(C)(C(=O)O)c1ccc(C(O)CCCN2CCC(C(O)(c3ccccc3)c3ccccc3)CC2)cc1 (centres unmarked) [fexofenadine] |  |  | 
2 |  | 0.0019 | 0.00052 | 0.0009 | 0.04988 | 0.0162 | 0.099 | 5.88 | 2.65 | 4.8 | 8 | 0.53 | 1.08 | 12.04 | CC(C)(C)c1ccc(C(O)CCCN2CCC(C(O)(c3ccccc3)c3ccccc3)CC2)cc1 (centres unmarked) [terfenadine] | 3 | 2 | 3
